Values quoted from earlier work, collected in patent US6586005B1, “Extended release formulation of etodolac” (Ranbaxy Laboratories Limited, priority 1999, dated 2003).

- Difference between solubility at pH 5 to pH 7 (pH 5 versus pH 7): thirty
- Aqueous solubility (pH independent below pH 3): very low aqueous solubility
Structure (SMILES): CCc1cccc2c3c([nH]c12)C(CC)(CC(=O)O)OCC3 (centres unmarked) [Etodolac, 1,8-diethyl-1,3,4,9-tetrahydropyrano [3,4-b] indole-1-acetic acid]
